Results reported in patent US20050120397A1, “Compounds and methods for regulation of spermatid differentiation” (priority 2003, published 2005).
Entries after “also recorded” stand apart in the source; their conditions may differ. Residues, ends and D or L forms follow the SMILES beside them. *: point of attachment. Cbz = O=C(OCc1ccccc1)*; CH2F = FC*

T1: drICE (Drosophila melanogaster, UniProt O01382)
T1 sequence (O01382 29-217 limits assumed): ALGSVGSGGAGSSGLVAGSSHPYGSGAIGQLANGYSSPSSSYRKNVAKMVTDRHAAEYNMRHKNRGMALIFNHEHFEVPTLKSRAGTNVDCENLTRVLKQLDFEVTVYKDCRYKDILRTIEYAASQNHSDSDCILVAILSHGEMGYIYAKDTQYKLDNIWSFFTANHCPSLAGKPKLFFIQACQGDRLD
T1 sequence (O01382 231-339 limits assumed): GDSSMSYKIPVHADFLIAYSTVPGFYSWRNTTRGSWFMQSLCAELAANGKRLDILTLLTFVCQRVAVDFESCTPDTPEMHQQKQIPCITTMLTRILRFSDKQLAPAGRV


How the values were obtained:
[1] = tested on: Drosophila S2 cells; conditions: cited from earlier work
[2] = tested on: spermatid individualization in cultured testes; assay: Testes cultures with caspase inhibitor (spermatid individualization); assay type: cell-based, Drosophila; conditions: isolated testes cultured 24-26 hours at 25° C. with 30 mm Z-VAD(OMe)-FMK
Procedure: At least 20 testes were examined for each experiment described. Testes of young adults were dissected in testis buffer (TB) which consisted of: 10 mM Tris-HCl, pH 6.8, 183 mM KCl, 47 mM NaCl, 1 mM EDTA, and 1 mM PMSF. Dissected testes were transferred to a […] droplet of TB placed on a siliconized coverslip (GOLD SEAL), opened using thin forceps, and sandwiched with a poly-L-lysine-coated slide. The sandwich was frozen in liquid nitrogen, the coverslip was removed with a razor blade, and the slide was placed in ice-cold absolute ethanol. The slides were drained and a hydrophobic ring surrounding the opaque tissue was drawn using a PAP PEN (Zymed Laboratories Inc.). The tissue was fixed in 4% formaldehyde in PBS for 20 minutes, rinsed twice with PBS for 5 minutes, incubated in PBT (PBS+0.1% Triton X-100) for 30 minutes, and rinsed twice again. The fixed testes were then blocked with PBS/BSA (1% BSA in PBS) for 45 minutes, incubated with primary antibody (diluted in PBS/BSA) within the hydrophobic ring overnight at […] inside a humid chamber, and rinsed twice for 5 minutes in PBS. […] Caspase inhibition of IC caudal movement was determined in vitro, using isolated pairs of testes from young adult flies (n=10). […]

[3] = target: T1, drICE; conditions: cited from earlier work
[4] = tested on: spermatid individualization and male fertility; assay: Expression of p35 in male gonads (Hsp83-gal4 x UAS-p35): fertility test and cytological analysis; assay type: in vivo, Drosophila
[5] = ectopic expression of p35 in male germ cells

Molecule	drICE-induced cell death [1]	IC (individualization complex) translocation ([2]; versus DMSO control)	cystic bulge (CB) morphology / collection of cytoplasm into CBs ([2]; versus DMSO control testis of same individual)	activity of drICE in vitro [3]	CM1-staining (active drICE) [4, 5]	spermatid individualization / CB and WB morphology in vivo [4, 5]	IC translocation in vivo ([4]; male progeny with Hsp83-gal4 driver and UAS-p35 construct)	male fertility ([4]; male progeny with Hsp83-gal4 driver and UAS-p35 construct, parental lines fertile)
COC(=O)C[C@H](NC(=O)[C@H](C)NC(=O)[C@@H](NC(=O)OCc1ccccc1)C(C)C)C(=O)CF [Z-VAD, Z-VAD(OMe)-FMK] (Cbz-Val-Ala-Asp(OMe)-CH2F)	blocks	no evidence of IC translocation	advanced CBs that appeared flat; also recorded: flat, irregular CBs	blocks the activity of drICE in vitro	–	–	–	–
p35: baculoviral broad-spectrum caspase inhibitor p35, expressed in male gonads via the GAL4/UAS system (protein, UniProt P08160 1-299, looked up) Early 35 kDa protein: MCVIFPVEIDVSQTIIRDCQVDKQTRELVYINKIMNTQLTKPVLMMFNISGPIRSVTRKNNNLRDRIKSKVDEQFDQLERDYSDQMDGFHDSIKYFKDEHYSVSCQNGSVLKSKFAKILKSHDYTDKKSIEAYEKYCLPKLVDERNDYYVAVCVLKPGFENGSNQVLSFEYNPIGNKVIVPFAHEINDTGLYEYDVVAYVDSVQFDGEQFEEFVQSLILPSSFKNSEKVLYYNEASKNKSMIYKALEFTTESSWGKSEKYNWKIFCNGFIYDKKSKVLYVKLHNVTSALNKNVILNTIK	–	–	–	–	failing to block CM1-staining	the cytoplasm failed to collect to form a normal CB; also recorded: blocked individualization; also recorded: scattered IC cones and flat CBs and WBs	IC translocation was severely impaired	sterile
